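Cells were grown in 96-well plates and exposed to each compound for 48 hours at five concentrations; endpoints were interpolated linearly between bracketing concentrations, or set to the highest concentration if not reached. Here, GI50 denotes the concentration required for 50% inhibition of growth. TGI: concentration producing complete growth inhibition.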
Key:
Assay in all cases: NCI anticancer screen, dose series, 48 h
HCT-15 colon = tested on: HCT-15 colon
OVCAR-5 ovarian = tested on: OVCAR-5 ovarian
SK-MEL-28 melanoma = tested on: SK-MEL-28 melanoma
NCI-H23 lung = tested on: NCI-H23 lung
EKVX NSCLC = tested on: EKVX NSCLC
MOLT-4 leukemia = tested on: MOLT-4 leukemia
M14 melanoma = tested on: M14 melanoma
BT-549 breast = tested on: BT-549 breast
CAKI-1 renal = tested on: CAKI-1 renal
DU-145 prostate = tested on: DU-145 prostate
SK-MEL-5 melanoma = tested on: SK-MEL-5 melanoma
COLO 205 colon = tested on: COLO 205 colon
OVCAR-8 ovarian = tested on: OVCAR-8 ovarian
SK-MEL-2 melanoma = tested on: SK-MEL-2 melanoma
KM12 colon = tested on: KM12 colon
A498 renal = tested on: A498 renal
PC-3 prostate = tested on: PC-3 prostate
SF-268 CNS = tested on: SF-268 CNS
ACHN renal = tested on: ACHN renal
786-0 renal = tested on: 786-0 renal
HT29 colon = tested on: HT29 colon
MDA-MB-231 breast = tested on: MDA-MB-231 breast
UACC-257 melanoma = tested on: UACC-257 melanoma
LOX IMVI melanoma = tested on: LOX IMVI melanoma
UO-31 renal = tested on: UO-31 renal
CCRF-CEM leukemia = tested on: CCRF-CEM leukemia
A549 NSCLC = tested on: A549 NSCLC
HCC-2998 colon = tested on: HCC-2998 colon
SNB-19 CNS = tested on: SNB-19 CNS
HS 578T breast = tested on: HS 578T breast
HOP-92 NSCLC = tested on: HOP-92 NSCLC
HL-60(TB) leukemia = tested on: HL-60(TB) leukemia
K-562 leukemia = tested on: K-562 leukemia
SN12C renal = tested on: SN12C renal
HOP-62 NSCLC = tested on: HOP-62 NSCLC
MALME-3M melanoma = tested on: MALME-3M melanoma
SK-OV-3 ovarian = tested on: SK-OV-3 ovarian
RXF 393 renal = tested on: RXF 393 renal
HCT-116 colon = tested on: HCT-116 colon
UACC-62 melanoma = tested on: UACC-62 melanoma
SF-295 CNS = tested on: SF-295 CNS
MDA-MB-435 = tested on: MDA-MB-435
SF-539 CNS = tested on: SF-539 CNS
SW-620 colon = tested on: SW-620 colon
TK-10 renal = tested on: TK-10 renal
SNB-75 CNS = tested on: SNB-75 CNS
MCF7 breast = tested on: MCF7 breast
NCI-H460 lung = tested on: NCI-H460 lung
IGROV1 ovarian = tested on: IGROV1 ovarian
OVCAR-4 ovarian = tested on: OVCAR-4 ovarian
T-47D breast = tested on: T-47D breast
NCI-H226 lung = tested on: NCI-H226 lung
NCI/ADR-RES ovarian = tested on: NCI/ADR-RES ovarian
OVCAR-3 ovarian = tested on: OVCAR-3 ovarian
U251 CNS = tested on: U251 CNS
NCI-H522 lung = tested on: NCI-H522 lung

CC1(C)CC[C@]2(CO)CC[C@]3(C)C(=CC[C@@H]4[C@@]5(C)CCNCC(C)(C)[C@@H]5CC[C@]43C)[C@@H]2C1
GI50 (HCT-15 colon): 2.16 µM | TGI (HCT-15 colon): 6.26 µM | GI50 (OVCAR-5 ovarian): 4.94 µM | TGI (OVCAR-5 ovarian): 17.6 µM | GI50 (SK-MEL-28 melanoma): 2.13 µM | TGI (SK-MEL-28 melanoma): 5.39 µM | GI50 (NCI-H23 lung): 12.5 µM | TGI (NCI-H23 lung): 26.9 µM | GI50 (EKVX NSCLC): 9.55 µM | TGI (EKVX NSCLC): 23.2 µM | GI50 (MOLT-4 leukemia): 4.41 µM | TGI (MOLT-4 leukemia): 18.7 µM | GI50 (M14 melanoma): 2.05 µM | TGI (M14 melanoma): 4.14 µM | GI50 (BT-549 breast): 4.79 µM | TGI (BT-549 breast): 18.3 µM | GI50 (CAKI-1 renal): 3.64 µM | TGI (CAKI-1 renal): 11.9 µM | GI50 (DU-145 prostate): 6.93 µM | TGI (DU-145 prostate): 21 µM | GI50 (SK-MEL-5 melanoma): 1.86 µM | TGI (SK-MEL-5 melanoma): 3.64 µM | GI50 (COLO 205 colon): 1.9 µM | TGI (COLO 205 colon): 4 µM | GI50 (OVCAR-8 ovarian): 4.77 µM | TGI (OVCAR-8 ovarian): 24.8 µM | GI50 (SK-MEL-2 melanoma): 2.32 µM | TGI (SK-MEL-2 melanoma): 5.57 µM | GI50 (KM12 colon): 3.32 µM | TGI (KM12 colon): 12.2 µM | GI50 (A498 renal): 12.5 µM | TGI (A498 renal): 25.1 µM | GI50 (PC-3 prostate): 4.32 µM | TGI (PC-3 prostate): 18.3 µM | GI50 (SF-268 CNS): 8.98 µM | TGI (SF-268 CNS): 25.4 µM | GI50 (ACHN renal): 4.91 µM | TGI (ACHN renal): 16.6 µM | GI50 (786-0 renal): 3.8 µM | TGI (786-0 renal): 15 µM | GI50 (HT29 colon): 2.69 µM | TGI (HT29 colon): 9.4 µM | GI50 (MDA-MB-231 breast): 3.49 µM | TGI (MDA-MB-231 breast): 11.6 µM | GI50 (UACC-257 melanoma): 2.33 µM | TGI (UACC-257 melanoma): 5.79 µM | GI50 (LOX IMVI melanoma): 2.45 µM | TGI (LOX IMVI melanoma): 5.52 µM | GI50 (UO-31 renal): 5.33 µM | TGI (UO-31 renal): 21.2 µM | GI50 (CCRF-CEM leukemia): 5.47 µM | TGI (CCRF-CEM leukemia): 23.1 µM | GI50 (A549 NSCLC): 8.23 µM | TGI (A549 NSCLC): 22.7 µM | GI50 (HCC-2998 colon): 1.89 µM | TGI (HCC-2998 colon): 4.07 µM | GI50 (SNB-19 CNS): 12.8 µM | TGI (SNB-19 CNS): 26.8 µM | GI50 (HS 578T breast): 4.88 µM | TGI (HS 578T breast): 22.1 µM | GI50 (HOP-92 NSCLC): 1.4 µM | TGI (HOP-92 NSCLC): 4.14 µM | GI50 (HL-60(TB) leukemia): 2.45 µM | TGI (HL-60(TB) leukemia): 7.34 µM | GI50 (K-562 leukemia): 2.6 µM | TGI (K-562 leukemia): 16.5 µM | GI50 (SN12C renal): 4.08 µM | TGI (SN12C renal): 16.9 µM | GI50 (HOP-62 NSCLC): 3.65 µM | TGI (HOP-62 NSCLC): 15.3 µM | GI50 (MALME-3M melanoma): 1.69 µM | TGI (MALME-3M melanoma): 3.71 µM | GI50 (SK-OV-3 ovarian): 13.5 µM | TGI (SK-OV-3 ovarian): 26.8 µM | GI50 (RXF 393 renal): 1.95 µM | TGI (RXF 393 renal): 4.83 µM | GI50 (HCT-116 colon): 3.13 µM | TGI (HCT-116 colon): 12.4 µM | GI50 (UACC-62 melanoma): 2.77 µM | TGI (UACC-62 melanoma): 8.14 µM | GI50 (SF-295 CNS): 1.93 µM | TGI (SF-295 CNS): 3.97 µM | GI50 (MDA-MB-435): 3.01 µM | TGI (MDA-MB-435): 8.9 µM | GI50 (SF-539 CNS): 10.6 µM | TGI (SF-539 CNS): 23.1 µM | GI50 (SW-620 colon): 1.97 µM | TGI (SW-620 colon): 4.41 µM | GI50 (TK-10 renal): 10.3 µM | TGI (TK-10 renal): 22.6 µM | GI50 (SNB-75 CNS): 10.1 µM | TGI (SNB-75 CNS): 23 µM | GI50 (MCF7 breast): 3.07 µM | TGI (MCF7 breast): 13.3 µM | GI50 (NCI-H460 lung): 2.08 µM | TGI (NCI-H460 lung): 4.82 µM | GI50 (IGROV1 ovarian): 6.83 µM | TGI (IGROV1 ovarian): 21 µM | GI50 (OVCAR-4 ovarian): 7.66 µM | TGI (OVCAR-4 ovarian): 24 µM | GI50 (T-47D breast): 2.42 µM | TGI (T-47D breast): 11.2 µM | GI50 (NCI-H226 lung): 16.8 µM | TGI (NCI-H226 lung): 35.5 µM | GI50 (NCI/ADR-RES ovarian): 9.4 µM | TGI (NCI/ADR-RES ovarian): 24.9 µM | GI50 (OVCAR-3 ovarian): 6.68 µM | TGI (OVCAR-3 ovarian): 27.7 µM | GI50 (U251 CNS): 3.53 µM | TGI (U251 CNS): 13.5 µM | GI50 (NCI-H522 lung): 2.62 µM | TGI (NCI-H522 lung): 7.09 µM

From PubChem BioAssay (NCI)
